Measured values published in ChEMBL document CHEMBL1142107, “The effect of halide salts on the production of Gymnoascus reessii polyenylpyrroles” (J Nat Prod, 2007).

Experiments:
[1] = Cytotoxicity against NS1 cell line up to 15 uM; format: cell-based; conditions: mouse
[2] = Cytotoxicity against NS1 cell line; format: cell-based; conditions: mouse

Compound	Activity [1]	LD99 [2] [µM]
COc1cc(/C(C)=C/C=C/C=C/C=C/c2ccc[nH]2)oc(=O)c1C	Not Active	
COc1cc(/C(C)=C/C=C/C=C/C=C/c2[nH]ccc2Br)oc(=O)c1C		1.9
COc1cc(/C(C)=C/C=C/C=C/C=C/c2[nH]ccc2Cl)oc(=O)c1C		0.034
